Results reported in patent publication US9963445B2, “Chemical compounds” (SYNGENTA PARTICIPATIONS AG, priority 2013, dated 2018).

The compounds below were run on Abutilon theophrasti (assay: Pre-emergence herbicidal activity, glasshouse pot test). Details: pre-emergence spray, rate 1000 g/ha, evaluated after 13 days, scale 0-5.
Assay type: in vivo
How it was run: (§1)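 Seeds sown in standard soil were sprayed one day after sowing, before emergence, with compound formulated in acetone/water (50:50) plus 0.5% Tween 20. Plants were grown at 24/16 °C day/night, 14 h light, 65% humidity, watered twice daily, and damage was scored after 13 days (0 = none, 5 = total).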

SMILES | ABUTH damage score, application pre-emergence
COc1ccc(N2C(=O)C(Cl)=C(C)C2O)nn1 (stereo not drawn) [BF8] | 5
CC1=C(Cl)C(=O)N(c2cc(C(C)C)c(Cl)nn2)C1O (stereo not drawn) [BF10] | 4
CC1=C(Cl)C(=O)N(c2cc(C(C)(C)F)c(Cl)nn2)C1O (stereo not drawn) [BF11] | 0
CC1=C(Cl)C(=O)N(c2cc(C(C)(F)F)c(Cl)nn2)C1O (stereo not drawn) [BF12] | 3
CCc1cc(N2C(=O)C(Cl)=C(C)C2O)nnc1Cl (stereo not drawn) [BF13] | 2
CC1=C(Cl)C(=O)N(c2ccc(C#N)nn2)C1O (stereo not drawn) [BF14] | 5
COC1=C(C)C(O)N(c2cc(C)c(OC)nn2)C1=O (stereo not drawn) [BG1] | 2
COC1=C(C)C(O)N(c2cc(C(C)(C)C)c(Cl)nn2)C1=O (stereo not drawn) [BI1] | 4

Each compound was assayed on Alopecurus myosuroides in the same assay as above. Details: pre-emergence spray, rate 1000 g/ha, evaluated after 13 days, scale 0-5.
Assay type: in vivo
How it was run: as §1

SMILES | ALOMY damage score, application pre-emergence
COc1ccc(N2C(=O)C(Cl)=C(C)C2O)nn1 (stereo not drawn) [BF8] | 2
CC1=C(Cl)C(=O)N(c2cc(C(C)C)c(Cl)nn2)C1O (stereo not drawn) [BF10] | 4
CC1=C(Cl)C(=O)N(c2cc(C(C)(C)F)c(Cl)nn2)C1O (stereo not drawn) [BF11] | 0
CC1=C(Cl)C(=O)N(c2cc(C(C)(F)F)c(Cl)nn2)C1O (stereo not drawn) [BF12] | 3
CCc1cc(N2C(=O)C(Cl)=C(C)C2O)nnc1Cl (stereo not drawn) [BF13] | 2
CC1=C(Cl)C(=O)N(c2ccc(C#N)nn2)C1O (stereo not drawn) [BF14] | 1
COC1=C(C)C(O)N(c2cc(C)c(OC)nn2)C1=O (stereo not drawn) [BG1] | 3
COC1=C(C)C(O)N(c2cc(C(C)(C)C)c(Cl)nn2)C1=O (stereo not drawn) [BI1] | 4

The compounds below were run on Amaranthus retroflexus in the same assay as above. Details: pre-emergence spray, rate 1000 g/ha, evaluated after 13 days, scale 0-5.
Assay type: in vivo
How it was run: as §1

SMILES | AMARE damage score, application pre-emergence
COc1ccc(N2C(=O)C(Cl)=C(C)C2O)nn1 (stereo not drawn) [BF8] | 1
CC1=C(Cl)C(=O)N(c2cc(C(C)C)c(Cl)nn2)C1O (stereo not drawn) [BF10] | 3
CC1=C(Cl)C(=O)N(c2cc(C(C)(C)F)c(Cl)nn2)C1O (stereo not drawn) [BF11] | 0
CC1=C(Cl)C(=O)N(c2cc(C(C)(F)F)c(Cl)nn2)C1O (stereo not drawn) [BF12] | 5
CCc1cc(N2C(=O)C(Cl)=C(C)C2O)nnc1Cl (stereo not drawn) [BF13] | 4
CC1=C(Cl)C(=O)N(c2ccc(C#N)nn2)C1O (stereo not drawn) [BF14] | 4
COC1=C(C)C(O)N(c2cc(C)c(OC)nn2)C1=O (stereo not drawn) [BG1] | 5
COC1=C(C)C(O)N(c2cc(C(C)(C)C)c(Cl)nn2)C1=O (stereo not drawn) [BI1] | 3

Each compound was assayed on Echinochloa crus-galli in the same assay as above. Details: pre-emergence spray, rate 1000 g/ha, evaluated after 13 days, scale 0-5.
Assay type: in vivo
How it was run: as §1

SMILES | ECHCG damage score, application pre-emergence
COc1ccc(N2C(=O)C(Cl)=C(C)C2O)nn1 (stereo not drawn) [BF8] | 4
CC1=C(Cl)C(=O)N(c2cc(C(C)C)c(Cl)nn2)C1O (stereo not drawn) [BF10] | 5
CC1=C(Cl)C(=O)N(c2cc(C(C)(C)F)c(Cl)nn2)C1O (stereo not drawn) [BF11] | 0
CC1=C(Cl)C(=O)N(c2cc(C(C)(F)F)c(Cl)nn2)C1O (stereo not drawn) [BF12] | 4
CCc1cc(N2C(=O)C(Cl)=C(C)C2O)nnc1Cl (stereo not drawn) [BF13] | 4
CC1=C(Cl)C(=O)N(c2ccc(C#N)nn2)C1O (stereo not drawn) [BF14] | 2
COC1=C(C)C(O)N(c2cc(C)c(OC)nn2)C1=O (stereo not drawn) [BG1] | 4
COC1=C(C)C(O)N(c2cc(C(C)(C)C)c(Cl)nn2)C1=O (stereo not drawn) [BI1] | 5

Each compound was assayed on Setaria faberi in the same assay as above. Details: pre-emergence spray, rate 1000 g/ha, evaluated after 13 days, scale 0-5.
Assay type: in vivo
How it was run: as §1

SMILES | SETFA damage score, application pre-emergence
COc1ccc(N2C(=O)C(Cl)=C(C)C2O)nn1 (stereo not drawn) [BF8] | 3
CC1=C(Cl)C(=O)N(c2cc(C(C)C)c(Cl)nn2)C1O (stereo not drawn) [BF10] | 5
CC1=C(Cl)C(=O)N(c2cc(C(C)(C)F)c(Cl)nn2)C1O (stereo not drawn) [BF11] | 0
CC1=C(Cl)C(=O)N(c2cc(C(C)(F)F)c(Cl)nn2)C1O (stereo not drawn) [BF12] | 4
CCc1cc(N2C(=O)C(Cl)=C(C)C2O)nnc1Cl (stereo not drawn) [BF13] | 5
CC1=C(Cl)C(=O)N(c2ccc(C#N)nn2)C1O (stereo not drawn) [BF14] | 0
COC1=C(C)C(O)N(c2cc(C)c(OC)nn2)C1=O (stereo not drawn) [BG1] | 2
COC1=C(C)C(O)N(c2cc(C(C)(C)C)c(Cl)nn2)C1=O (stereo not drawn) [BI1] | 5

Each compound was assayed on zea mays in the same assay as above. Details: pre-emergence spray, rate 1000 g/ha, evaluated after 13 days, scale 0-5.
Assay type: in vivo
How it was run: as §1

SMILES | ZEAMX damage score, application pre-emergence
COc1ccc(N2C(=O)C(Cl)=C(C)C2O)nn1 (stereo not drawn) [BF8] | 0
CC1=C(Cl)C(=O)N(c2cc(C(C)C)c(Cl)nn2)C1O (stereo not drawn) [BF10] | 2
CC1=C(Cl)C(=O)N(c2cc(C(C)(C)F)c(Cl)nn2)C1O (stereo not drawn) [BF11] | 0
CC1=C(Cl)C(=O)N(c2cc(C(C)(F)F)c(Cl)nn2)C1O (stereo not drawn) [BF12] | 2
CCc1cc(N2C(=O)C(Cl)=C(C)C2O)nnc1Cl (stereo not drawn) [BF13] | 1
CC1=C(Cl)C(=O)N(c2ccc(C#N)nn2)C1O (stereo not drawn) [BF14] | 0
COC1=C(C)C(O)N(c2cc(C)c(OC)nn2)C1=O (stereo not drawn) [BG1] | 1
COC1=C(C)C(O)N(c2cc(C(C)(C)C)c(Cl)nn2)C1=O (stereo not drawn) [BI1] | 4

The compounds below were run on Abutilon theophrasti (assay: Post-emergence herbicidal activity, glasshouse pot test). Details: Application post-emergence, rate 1000 g/ha, evaluated after 13 days.
Assay type: in vivo
Set-up: key: 0 = no damage to plant, 5 = total damage to plant
How it was run: (§2)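 After 8 days of glasshouse growth at 24/16 °C day/night, potted plants receive a foliar spray of the formulated compound (0.5% Tween 20 in acetone/water). They are then watered twice daily under unchanged conditions, and phytotoxicity is scored 0–5 after 13 days.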

SMILES | ABUTH herbicidal damage score
COc1ccc(N2C(=O)C(Cl)=C(C)C2O)nn1 (stereo not drawn) [BF8] | 5
CC1=C(Cl)C(=O)N(c2cc(C(C)C)c(Cl)nn2)C1O (stereo not drawn) [BF10] | 5
CC1=C(Cl)C(=O)N(c2cc(C(C)(C)F)c(Cl)nn2)C1O (stereo not drawn) [BF11] | 2
CC1=C(Cl)C(=O)N(c2cc(C(C)(F)F)c(Cl)nn2)C1O (stereo not drawn) [BF12] | 4
CCc1cc(N2C(=O)C(Cl)=C(C)C2O)nnc1Cl (stereo not drawn) [BF13] | 3
CC1=C(Cl)C(=O)N(c2ccc(C#N)nn2)C1O (stereo not drawn) [BF14] | 1
COC1=C(C)C(O)N(c2cc(C)c(OC)nn2)C1=O (stereo not drawn) [BG1] | 5
COC1=C(C)C(O)N(c2cc(C(C)(C)C)c(Cl)nn2)C1=O (stereo not drawn) [BI1] | 5

These compounds were tested on Alopecurus myosuroides in the same assay as above. Details: Application post-emergence, rate 1000 g/ha, evaluated after 13 days.
Assay type: in vivo
Set-up: key: 0 = no damage to plant, 5 = total damage to plant
How it was run: as §2

SMILES | ALOMY herbicidal damage score
COc1ccc(N2C(=O)C(Cl)=C(C)C2O)nn1 (stereo not drawn) [BF8] | 4
CC1=C(Cl)C(=O)N(c2cc(C(C)C)c(Cl)nn2)C1O (stereo not drawn) [BF10] | 5
CC1=C(Cl)C(=O)N(c2cc(C(C)(C)F)c(Cl)nn2)C1O (stereo not drawn) [BF11] | 2
CC1=C(Cl)C(=O)N(c2cc(C(C)(F)F)c(Cl)nn2)C1O (stereo not drawn) [BF12] | 4
CCc1cc(N2C(=O)C(Cl)=C(C)C2O)nnc1Cl (stereo not drawn) [BF13] | 4
CC1=C(Cl)C(=O)N(c2ccc(C#N)nn2)C1O (stereo not drawn) [BF14] | 2
COC1=C(C)C(O)N(c2cc(C)c(OC)nn2)C1=O (stereo not drawn) [BG1] | 4
COC1=C(C)C(O)N(c2cc(C(C)(C)C)c(Cl)nn2)C1=O (stereo not drawn) [BI1] | 5

What follows are compounds tested on Amaranthus retroflexus in the same assay as above. Details: Application post-emergence, rate 1000 g/ha, evaluated after 13 days.
Assay type: in vivo
Set-up: key: 0 = no damage to plant, 5 = total damage to plant
How it was run: as §2

SMILES | AMARE herbicidal damage score
COc1ccc(N2C(=O)C(Cl)=C(C)C2O)nn1 (stereo not drawn) [BF8] | 5
CC1=C(Cl)C(=O)N(c2cc(C(C)C)c(Cl)nn2)C1O (stereo not drawn) [BF10] | 5
CC1=C(Cl)C(=O)N(c2cc(C(C)(C)F)c(Cl)nn2)C1O (stereo not drawn) [BF11] | 2
CC1=C(Cl)C(=O)N(c2cc(C(C)(F)F)c(Cl)nn2)C1O (stereo not drawn) [BF12] | 5
CCc1cc(N2C(=O)C(Cl)=C(C)C2O)nnc1Cl (stereo not drawn) [BF13] | 3
CC1=C(Cl)C(=O)N(c2ccc(C#N)nn2)C1O (stereo not drawn) [BF14] | 2
COC1=C(C)C(O)N(c2cc(C)c(OC)nn2)C1=O (stereo not drawn) [BG1] | 5
COC1=C(C)C(O)N(c2cc(C(C)(C)C)c(Cl)nn2)C1=O (stereo not drawn) [BI1] | 5

The compounds below were run on Echinochloa crus-galli in the same assay as above. Details: Application post-emergence, rate 1000 g/ha, evaluated after 13 days.
Assay type: in vivo
Set-up: key: 0 = no damage to plant, 5 = total damage to plant
How it was run: as §2

SMILES | ECHCG herbicidal damage score
COc1ccc(N2C(=O)C(Cl)=C(C)C2O)nn1 (stereo not drawn) [BF8] | 5
CC1=C(Cl)C(=O)N(c2cc(C(C)C)c(Cl)nn2)C1O (stereo not drawn) [BF10] | 5
CC1=C(Cl)C(=O)N(c2cc(C(C)(C)F)c(Cl)nn2)C1O (stereo not drawn) [BF11] | 3
CC1=C(Cl)C(=O)N(c2cc(C(C)(F)F)c(Cl)nn2)C1O (stereo not drawn) [BF12] | 5
CCc1cc(N2C(=O)C(Cl)=C(C)C2O)nnc1Cl (stereo not drawn) [BF13] | 5
CC1=C(Cl)C(=O)N(c2ccc(C#N)nn2)C1O (stereo not drawn) [BF14] | 2
COC1=C(C)C(O)N(c2cc(C)c(OC)nn2)C1=O (stereo not drawn) [BG1] | 5
COC1=C(C)C(O)N(c2cc(C(C)(C)C)c(Cl)nn2)C1=O (stereo not drawn) [BI1] | 5

What follows are compounds tested on Setaria faberi in the same assay as above. Details: Application post-emergence, rate 1000 g/ha, evaluated after 13 days.
Assay type: in vivo
Set-up: key: 0 = no damage to plant, 5 = total damage to plant
How it was run: as §2

SMILES | SETFA herbicidal damage score
COc1ccc(N2C(=O)C(Cl)=C(C)C2O)nn1 (stereo not drawn) [BF8] | 5
CC1=C(Cl)C(=O)N(c2cc(C(C)C)c(Cl)nn2)C1O (stereo not drawn) [BF10] | 5
CC1=C(Cl)C(=O)N(c2cc(C(C)(C)F)c(Cl)nn2)C1O (stereo not drawn) [BF11] | 3
CC1=C(Cl)C(=O)N(c2cc(C(C)(F)F)c(Cl)nn2)C1O (stereo not drawn) [BF12] | 5
CCc1cc(N2C(=O)C(Cl)=C(C)C2O)nnc1Cl (stereo not drawn) [BF13] | 5
CC1=C(Cl)C(=O)N(c2ccc(C#N)nn2)C1O (stereo not drawn) [BF14] | 3
COC1=C(C)C(O)N(c2cc(C)c(OC)nn2)C1=O (stereo not drawn) [BG1] | 5
COC1=C(C)C(O)N(c2cc(C(C)(C)C)c(Cl)nn2)C1=O (stereo not drawn) [BI1] | 5

Each compound was assayed on zea mays in the same assay as above. Details: Application post-emergence, rate 1000 g/ha, evaluated after 13 days.
Assay type: in vivo
Set-up: key: 0 = no damage to plant, 5 = total damage to plant
How it was run: as §2

SMILES | ZEAMX herbicidal damage score
COc1ccc(N2C(=O)C(Cl)=C(C)C2O)nn1 (stereo not drawn) [BF8] | 1
CC1=C(Cl)C(=O)N(c2cc(C(C)C)c(Cl)nn2)C1O (stereo not drawn) [BF10] | 3
CC1=C(Cl)C(=O)N(c2cc(C(C)(C)F)c(Cl)nn2)C1O (stereo not drawn) [BF11] | 1
CC1=C(Cl)C(=O)N(c2cc(C(C)(F)F)c(Cl)nn2)C1O (stereo not drawn) [BF12] | 3
CCc1cc(N2C(=O)C(Cl)=C(C)C2O)nnc1Cl (stereo not drawn) [BF13] | 1
CC1=C(Cl)C(=O)N(c2ccc(C#N)nn2)C1O (stereo not drawn) [BF14] | 1
COC1=C(C)C(O)N(c2cc(C)c(OC)nn2)C1=O (stereo not drawn) [BG1] | 4
COC1=C(C)C(O)N(c2cc(C(C)(C)C)c(Cl)nn2)C1=O (stereo not drawn) [BI1] | 4
